Measurements from ChEMBL document CHEMBL1152923, “ent-Kaurane diterpenoids from Isodon pharicus” (J Nat Prod, 2009).
pIC50: −log10 of the molar value.

Columns and labels:
Format in all cases: functional, cell-based
NB-4 = test: Cytotoxicity against human NB4 cells after 48 hrs by SRB method; conditions: NB-4, 48 h
MCF7 = test: Cytotoxicity against human MCF7 cells after 48 hrs by SRB method; conditions: MCF7, 48 h
SH-SY5Y = test: Cytotoxicity against human SH-SY5Y cells after 48 hrs by SRB method
PC-3 = test: Cytotoxicity against human PC3 cells after 48 hrs by SRB method; conditions: PC-3, 48 h
A549 = test: Cytotoxicity against human A549 cells after 48 hrs by SRB method; conditions: A549, 48 h

Structure (SMILES)	pIC50 (NB-4)	pIC50 (MCF7)	pIC50 (SH-SY5Y)	pIC50 (PC-3)	pIC50 (A549)
C=C1C(=O)[C@]23[C@H](O)[C@H]1C(=O)C[C@H]2[C@]1(C)CC[C@H](OC(C)=O)C(C)(C)[C@H]1C[C@H]3OC(C)=O	< 5.00	< 5.00	< 5.00	< 5.00	< 5.00
C=C1C(=O)[C@@]23[C@H](O)C[C@@H]4C(C)(C)[C@H](O)CC[C@@]4(C)[C@@H]2C[C@H](OC(C)=O)[C@@H]1[C@H]3O	5.08	< 5.00	5.09	< 5.00	< 5.00
C=C1[C@H]2[C@@H](OC(C)=O)[C@@]3(CC[C@@H]4C(C)(C)[C@@H](O)CC[C@@]4(C)[C@@H]3C[C@@H]2O)[C@@H]1O	< 5.00	< 5.00	< 5.00	< 5.00	< 5.00
COC[C@@H]1C(=O)[C@@]23[C@H](O)C[C@@H]4C(C)(C)[C@@H](OC(C)=O)CC[C@@]4(C)[C@@H]2CC(=O)[C@@H]1[C@H]3O	5.06	< 5.00	< 5.00	5.13	< 5.00
C=C1C(=O)[C@@]23[C@H](O)C[C@@H]4C(C)(C)[C@@H](OC(C)=O)C[C@H](O)[C@@]4(C)[C@@H]2C[C@H](O)[C@@H]1[C@H]3O	< 5.00	< 5.00	< 5.00	< 5.00	< 5.00
C=C1C(=O)[C@@]23[C@@H]4OC(C)(C)O[C@@H]2C[C@@H]2C(C)(C)[C@H](O)CC[C@@]2(C)[C@@H]3C[C@H](O)[C@@H]14	5.45	< 5.00	< 5.00	< 5.00	5.22
C=C1C(=O)[C@@]23[C@H](O)C[C@@H]4C(C)(C)[C@@H](O)CC[C@@]4(C)[C@@H]2C[C@H](O)[C@@H]1[C@H]3O [3-EPIPSEURATA B]	< 5.00	< 5.00	< 5.00	< 5.00	< 5.00
C=C1[C@@H]2C(=O)C[C@H]3[C@@]4(C)[C@H](C[C@@H](O)[C@@]3([C@@H]1O)[C@@H]2O)C(C)(C)[C@@H](OC(C)=O)C[C@@H]4O [DIHYDROPSEURATA F]	< 5.00	< 5.00	< 5.00	< 5.00	< 5.00
C=C1C(=O)[C@@]23[C@H](O)C[C@@H]4C(C)(C)C(=O)CC[C@@]4(C)[C@@H]2CC[C@@H]1[C@H]3O [GLAUCOCALYXIN A]	5.54	5.06	< 5.00	< 5.00	5.27
C=C1C(=O)[C@@]23[C@H](O)C[C@@H]4C(C)(C)C(=O)CC[C@@]4(C)[C@@H]2CC[C@@H]1[C@H]3OC(C)=O [GLAUCOCALYXIN B]	5.10	< 5.00	< 5.00	< 5.00	5.21
C=C1C(=O)[C@@]23[C@H](O)C[C@@H]4C(C)(C)[C@@H](OC(C)=O)C[C@H](O)[C@@]4(C)[C@@H]2CC[C@@H]1[C@H]3O [ISODOMEDIN]	5.14	< 5.00	< 5.00	< 5.00	< 5.00
C=C1C(=O)[C@@]23[C@H](O)C[C@@H]4C(C)(C)[C@@H](OC(C)=O)CC[C@@]4(C)[C@@H]2CC[C@@H]1[C@H]3O [LEUKAMENIN E]	5.40	< 5.00	< 5.00	< 5.00	< 5.00
C=C1C(=O)[C@@]23[C@H](O)C[C@@H]4C(C)(C)[C@@H](O)C[C@H](O)[C@@]4(C)[C@@H]2CC[C@@H]1[C@H]3O [MINHERYIN G]	< 5.00	< 5.00	< 5.00	< 5.00	< 5.00
C=C1C(=O)[C@@]23C(CC[C@@H]1[C@H]2O)[C@]1(C)CC[C@@H](O)C(C)(C)[C@H]1C[C@H]3O (stereo not given in full) [PSEURATA A]	5.11	5.04	< 5.00	< 5.00	5.53
C=C1C(=O)[C@@]23[C@H](O)C[C@@H]4C(C)(C)[C@H](O)CC[C@@]4(C)[C@@H]2C[C@H](O)[C@@H]1[C@H]3O [PSEURATA B]	< 5.00	< 5.00	< 5.00	< 5.00	< 5.00
C=C1C(=O)[C@@]23[C@H](O)C[C@@H]4C(C)(C)[C@@H](OC(C)=O)CC[C@@]4(C)[C@@H]2CC(=O)[C@@H]1[C@H]3O [PSEURATA C]	5.68	< 5.00	< 5.00	< 5.00	5.12
C=C1C(=O)[C@@]23[C@H](O)C[C@@H]4C(C)(C)[C@@H](OC(C)=O)C[C@H](O)[C@@]4(C)[C@@H]2CC(=O)[C@@H]1[C@H]3O [PSEURATA F]	< 5.00	< 5.00	< 5.00	< 5.00	< 5.00
C=C1C(=O)[C@@]23C(CC[C@@H]1[C@H]2O)[C@]1(C)CC[C@H](O)C(C)(C)[C@H]1C[C@H]3O (stereo not given in full) [WANGZAOZIN A]	5.04	5.24	< 5.00	< 5.00	5.03
